Measured values: the NIST ThermoML archive (doi:10.1016/j.tca.2014.08.033)

Details: Liquid, DSC

O [water]
Details	vapor or sublimation pressure [kPa]
354.7 K	49.7
366.85 K	79.6
373.47 K	100.66
406.69 K	298.53
425.39 K	498.99

Cc1ccccc1 [toluene]
Details	vapor or sublimation pressure [kPa]
327.6 K	14.9
360.7 K	49.6
375.8 K	79.3
383.5 K	100.66
384.3 K	102.73
451 K	498.3
451.5 K	499.9
490.4 K	1009.3

CN1CCC[C@H]1c1cccnc1 [(-)-3-(N-methylpyrrolidino)pyridine]
Details	vapor or sublimation pressure [kPa]
447.7 K	14.96
457.2 K	19.93
471.1 K	29.87
490.6 K	49.83
510.1 K	79.61
520.4 K	99.84
566.4 K	247.84
594.8 K	397.81
609.3 K	500.02
617.8 K	568.97

c1cncc(C2CCCCN2)c1 (configuration not stated) [(.+-.)-anabasine]
Details	vapor or sublimation pressure [kPa]
478 K	14.95
488 K	19.9
502.9 K	29.84
523 K	49.73
543.5 K	79.59
555.1 K	99.57
602.5 K	248.35
631.3 K	398.33
640.7 K	468.91
644.3 K	498.63

CN1C(=O)CC[C@H]1c1cccnc1 [(S)-cotinine]
Details	vapor or sublimation pressure [kPa]
537.7 K	14.95
548.4 K	19.9
564.2 K	29.82
585.6 K	49.74
601.3 K	69.56
607.4 K	79.5
619.2 K	101.32
655.4 K	197.04
669.7 K	247.52

CCCCCCCCCCCCCCCC [hexadecane]
Details	vapor or sublimation pressure [kPa]
486.1 K	14.78
529.6 K	49.76
549.3 K	79.6
560.5 K	101.35
560.9 K	102.04
